These results are taken from paper PMC10229614 (Scientific Reports, 2023).

Where two headings read alike, the source gives them in different places.

Data set [1] concerns uterus. Put plainly: In vivo uterotrophic study in immature female Sprague-Dawley rats. Also noted: species or system rat. As to conditions: 3 days. As to the method: Animals were sacrificed on day 4 and their uterine weights were measured.
We used the OECD guidelines and animal model for testing uterotrophic or estrogenic activity of compounds[49]. […] The animals were treated for 3 days every 24 h. Animal weight and food intake were evaluated daily. Animals were sacrificed by CO2 asphyxiation. Uterus was collected, trimmed of fat and connective tissue, and weighted.

Another data set relates to CYP19A1 expression. Description: qPCR of CYP19A1 mRNA in high-risk postmenopausal breast tissue microstructures. Format: cell-based, human. To be noted: 24 h, vs vehicle; for Suppression of baseline CYP19A1 expression: 5 µM, six subjects' tissues. (In general: Quantitative PCR measures a nucleic acid by following its amplification.)
Another data set concerns the target T1, aromatase (CYP19A1) (Homo sapiens, UniProt P11511).
T1 construct: purchased Corning (Corning, NY)
T1 sequence (P11511 1-503): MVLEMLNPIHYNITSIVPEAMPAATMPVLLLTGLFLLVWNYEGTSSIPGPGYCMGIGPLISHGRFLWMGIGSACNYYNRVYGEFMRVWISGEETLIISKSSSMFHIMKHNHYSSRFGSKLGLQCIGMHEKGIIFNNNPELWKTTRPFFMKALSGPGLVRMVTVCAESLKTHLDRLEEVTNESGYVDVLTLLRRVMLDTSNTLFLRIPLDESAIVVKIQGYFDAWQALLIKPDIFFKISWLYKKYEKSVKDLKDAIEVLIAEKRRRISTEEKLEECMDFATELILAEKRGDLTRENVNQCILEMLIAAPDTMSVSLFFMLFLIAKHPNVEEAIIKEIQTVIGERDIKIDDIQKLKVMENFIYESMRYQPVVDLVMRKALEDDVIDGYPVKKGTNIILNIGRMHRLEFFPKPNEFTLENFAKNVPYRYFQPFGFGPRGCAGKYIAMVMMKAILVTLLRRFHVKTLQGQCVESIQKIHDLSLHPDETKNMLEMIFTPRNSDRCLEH
Description: Aromatase inhibition assay (Corning Supersomes CYP19/MFC kit, fluorescent). It counts as biochemical. As to conditions: 37 °C, mean ± SD of at least three measurements. The procedure:
Formation of a fluorescent metabolite was measured at Ex/Em of 409 nm/530 nm. Data represents mean ± SD of at least three independent measurements.
To evaluate the aromatase inhibitory potential of hops, licorice species, and their bioactive compounds, the Corning® Supersomes™ P450 Inhibition Kit CYP19/MFC high throughput inhibition assay was used. The protocol of the kit, which is based on the effects of the tested agents on the conversion of the fluorescent substrate, 7-methoxy-4-trifluoromethyl coumarin (MFC) to 7-hydroxy-4-trifluoromethyl coumarin (HFC) by aromatase, was followed. […] Then the enzyme/substrate mixture containing the aromatase enzyme and MFC were added to the pre-incubated mixture and were incubated at 37 °C for 30 min before stopping the enzymatic reaction with the stop solution. The fluorescent signal was evaluated at the Excitation/Emission of 409 nm/530 nm and was corrected for the potential innate fluorescence of the tested extracts and compounds.

The test system of the next data set is ERα. As to conditions: read-out: ERα binding (IC50), cited from earlier work.
The test system of the next data set is MCF-7 cells. Put plainly: MCF-7 cell proliferation by IncuCyte live cell imaging. Format: cell-based, human. As to the method: Cell proliferation was monitored using live cell imaging by IncuCyte. Data represents the mean of at least two independent observations ± SEM.
MCF-7 cells were seeded at density of 2.5 × 10^3 cells/well in RPMI media supplemented with 10% FBS. Cells were placed in IncuCyte for live cell imaging every 6 h, and were monitored. […] Treatments were repeated every 48 h until day 6 and cells were monitored until day 12. Data was analyzed using Zoom software to quantify the images and were plotted as mean ± SD of at least two independent measurements.

Data set [2] relates to uterus. Also noted: method as in PMID 18619951, PMID 34848279. To be noted: cited from earlier work.
The next data set concerns ERβ. To be noted: read-out: ERβ binding (IC50), cited from earlier work.
Where [3] appears, read: ref J Agric Food Chem. 2020, 68: 10651–10663.

Description for CYP19A1 expression: Subsequently, RNA extraction and qPCR of CYP19A1 was performed. The expression of CYP19A1 mRNA was calculated relative to the housekeeping gene RPLP0 and normalized to DMSO control.
The unaffected contralateral breast tissues of postmenopausal women who underwent bilateral mastectomy due to incident unilateral breast cancer were obtained while fresh and diced to approximately 5 mm pieces before digesting at 37 °C with 2% collagenase I in F12-K nutrient mix (Kaighn’s) medium, overnight. After the completion of digestion, the tissue was centrifuged at 250×g for 5 min and the supernatant was discarded. The pellet was washed with phosphate buffered saline and was mixed and cultured in MammoCult media supplemented with 0.2% heparin and 0.5% hydrocortisone. After 24 h incubation at 37 °C the treatments were mixed with fresh MammoCult media and added to the microstructures.
After 24 h incubation with the treatments, the microstructure pellet of the first 6 donors’ samples were prepared separately (not pooled) and washed with HBSS. Trizol was added to each pellet and the protocol of Direct-Zol RNA prep kit was used to extract RNA. The protocol included a step of DNAse I treatment for removing DNA contamination of the RNA preparations. RNA was eluted in nuclease free water and the concentration was measured using Nano Drop 2000 spectrophotometry (Thermo Fisher). The Integrated DNA Technologies (IDT) protocol, pre-made aromatase (CYP19A1) gene primer, and the pre-made housekeeping RPLP0 gene primer was used to perform qPCR using QuantStudio 12 K Flex Real Time PCR system.

As for `C[C@]12CC[C@@H]3c4ccc(OC(=O)c5ccccc5)cc4CC[C@H]3[C@@H]1CC[C@@H]2O` [Estradiol benzoate, 17β-estradiol benzoate, reference compound], the “Uterine weight vs vehicle” value with uterus [1] (1.6 µg/kg.day s.c.) is listed as “significantly enhanced uterine weight (nearly doubled)”.
The term IC50 denotes the midpoint of a concentration-inhibition curve. Take `C=CC(C)(C)c1cc(/C=C/C(=O)c2ccc(O)cc2)c(OC)cc1O` [LicA, licochalcone A]: in the data set on CYP19A1 expression, the “Suppression of baseline CYP19A1 expression” value is reported as around 40%. Moreover, on aromatase (CYP19A1), the IC50 came out at 3200 ± 100 nM.
`COc1cc(O)c(CC=C(C)C)c(O)c1C(=O)/C=C/c1ccc(O)cc1` [XH, xanthohumol] yielded a half-inhibitory concentration (IC50) on aromatase (CYP19A1) of 4300 ± 600 nM.
As for `O=C1C[C@@H](c2ccc(O)cc2)Oc2cc(O)ccc21` [LigF, liquiritigenin], the “Suppression of baseline CYP19A1 expression” value in the data set on CYP19A1 expression is 25%. Besides, the half-inhibitory concentration (IC50) at aromatase (CYP19A1) was 430 ± 20 nM; with ERα (ref PLoS One, 2013, 8: e67947), above 200000 nM. For the same compound, the “Uterine growth vs vehicle” value is given as “did not enhance uterine growth, significantly” in the data set on uterus [1] (50 mg/kg.day s.c.) and “did not enhance uterine growth, significantly” in the data set with uterus [1] (150 mg/kg.day s.c.). Moreover, in the data set with uterus [1] (150 mg/kg.day s.c. co-administered with estradiol benzoate 1.6 µg/kg.day), the E2-induced uterine growth result is listed as “suppressed E2-induced uterine growth, significantly”. The “Cell proliferation after treatment halted” value in the data set on MCF-7 cells (20 µM, treatment halted after third dose (six days)) is recorded as “reached full confluency on day 10”; in the data set on MCF-7 cells (40 µM, last dose on day 6) it was “maintained a significantly reduced proliferation rate until the end of the study (day 11)”. Besides, the Cytotoxicity result in the data set with MCF-7 cells (MCF-7 cells exposed to LigF) is on record as “did not detect cytotoxicity”. The Cell proliferation entry with MCF-7 cells (repeated doses of 20 µM every 48 h) and in the data set on MCF-7 cells (repeated doses of 40 µM every 48 h) was “profound suppression of proliferation” throughout. In addition, in the data set on MCF-7 cells (single dose), the “Cell proliferation after a single dose” value is “clear reduction in cell proliferation for up to 48 h”.
As to `CC(C)=CCc1c(O)cc(O)c2c1O[C@H](c1ccc(O)cc1)CC2=O` [8-PN, 8-prenylnaringenin], the Uterine growth result with uterus [2] was “enhance uterine growth”. Moreover, the “Suppression of CYP19A1 expression” value with CYP19A1 expression (10 µM, 5 subjects' tissues) was 40%. The concentration for half-maximal inhibition (IC50) was 50 ± 4 nM on aromatase (CYP19A1), […] with ERα (setting [3]) and […] with ERβ (setting [3]).
For the compound `O=C(/C=C/c1ccc(O)cc1)c1ccc(O)cc1O` [LigC, isoliquiritigenin], the concentration for half-maximal inhibition (IC50) is 4000 ± 300 nM against aromatase (CYP19A1); 16000 ± 1000 nM in the data set on ERα (ref PLoS One, 2013, 8: e67947); 7800 ± 100 nM with ERβ (ref PLoS One, 2013, 8: e67947).
Regarding `CC(C)=CCc1c(O)cc(O)c2c(=O)cc(-c3ccc(O)cc3)oc12` [8-PA, 8-prenylapigenin], the figures for the IC50 on aromatase (CYP19A1), in the data set on ERα (setting [3]) and in the data set on ERβ (setting [3]) were 590 ± 80 nM, 100 ± 50 nM and 30 ± 10 nM, respectively.
Compound `CC(C)=CCc1c(O)cc2c(c1O)C(=O)C[C@@H](c1ccc(O)cc1)O2` [6-PN, 6-prenylnaringenin] gave a 50% inhibitory concentration (IC50) against aromatase (CYP19A1) of 7400 ± 300 nM.
